Assay results reported in the SangsterLogP compilation.
One block for each molecule: values may come before it.

Legend:
[1] = method code SF-HPLC, from DOI: 10.1016/j.ijpharm.2013.10.039, PMID: 24184034; conditions: pH 7.0
[2] = method code SF-HPLC, from DOI: 10.1023/a:1016059008464, PMID: 8899834
[3] = method code SF, from DOI: 10.1021/jm00088a007, PMID: 1588555; conditions: pH 7.4
[4] = method code SF-HPLC, from DOI: 10.1002/jps.2600830805, PMID: 7983590; conditions: pH 12.2
[5] = method code SF, from DOI: 10.3139/113.110173

SMILES: CC(=O)O[C@@H]1C(=O)[C@]23C[C@H]2C[C@H]2OC[C@@]2(OC(C)=O)[C@H]3[C@H](OC(=O)c2ccccc2)[C@]2(O)C[C@H](OC(=O)[C@H](O)[C@@H](NC(=O)OC(C)(C)C)c3ccccc3)C(C)=C1C2(C)C
logD [1]: 2.06

SMILES: CC(C)CCC[C@@H](C)[C@H]1CC[C@H]2[C@@H]3CC[C@H]4C[C@@H](CCC=C(c5cc(Cl)c(O)c(C(=O)O)c5)c5cc(Cl)c(O)c(C(=O)O)c5)CC[C@]4(C)[C@H]3CC[C@]12C
logP [2]: 6.94

SMILES: CCCC[C@H](O[C@@H](Cc1ccccc1)C(=O)N1CCC(OCOC)CC1)C(=O)NC(CC1CCCCC1)C(O)CC(C(=O)NCCCN1CCOCC1)C(C)C (stereo not given in full)
logD [3]: 4.3

Now from value to molecule:

logD [4]: 1.1
SMILES: CCCCC(NC(C)=O)C(=O)NC1NCCCCC(C(N)=O)NC(=O)C(Cc2c[nH]c3ccccc23)NC(=O)C(CCCC(=N)N)NC(=O)C(Cc2ccccc2)NC(=O)C(Cc2cnc[nH]2)NC1=O (stereo not given)

logP [5]: 0.31
SMILES: CCCCCCCCCCCOCCOCCOCCOCCOCCOCCOCCOCCOCCOCCOCCOCCOCCOCCOCCOCCOCCOCCOCCOCCOCCOCCOCCOCCOCCOCCOCCOCCO
